Values quoted from earlier work, collected in article PMC7904743, “WIDOCK: a reactive docking protocol for virtual screening of covalent inhibitors” (Journal of Computer-Aided Molecular Design, 2021).
Where two headings read alike, the source gives them in different places.

Columns and labels:
OTUB2 = conditions: experimental actives if % labeling higher than 50%, cited from earlier work
NUDT7 = conditions: protein labeling at 200 μM; experimental actives if % labeling higher than 50%; cited from earlier work
[1] = thiol reactivity, cited from earlier work
[2] = natural log of average rate constant k
[3] = natural logarithm of average rate constant
[4] = natural log of average rate constant
[5] = natural log of average kinetic rate constant

Row | Compound | OTUB2 % labeling (OTUB2) [%] | NUDT7 % labeling (NUDT7) [%] | ln(avg k) [1, 2] | ln(avg k) [1, 3] | ln(avg k) [1, 4] | OTUB2 % labeling (OTUB2; OTUB2 protein labeling) [%] | ln(avg k) [1, 5]
1 | CC1CCCC(NC(=O)CCl)C1C (centres unmarked) [PCM-0102663, CC1CCCC(NC(=O)CCl)C1C] | 29 | 0 | -16.862 | -16.862 | – | – | –
2 | CC(C#N)(NC(=O)CCl)C1CC1 (centres unmarked) [PCM-0102664, CC(C#N)(NC(=O)CCl)C1CC1] | 0 | 0 | -16.170 | -16.170 | – | – | –
3 | Cc1cc(NC(=O)CCl)n(-c2ccc(F)cc2)n1 [PCM-0102665, Cc1cc(NC(=O)CCl)n(-c2ccc(F)cc2)n1] | 53 | 0 | -15.905 | -15.905 | – | – | –
4 | CC1CCC2(CC1)NC(=O)N(NC(=O)CCl)C2=O (centres unmarked) [PCM-0102666, CC1CCC2(CC1)NC(=O)N(NC(=O)CCl)C2=O] | 0 | 0 | -17.364 | -17.364 | – | – | –
5 | CN(C(=O)CCl)c1ccc([N+](=O)[O-])cc1 [PCM-0102669, CN(C(=O)CCl)c1ccc([N+](=O)[O-])cc1] | 0 | 14 | -15.479 | -15.479 | – | – | –
6 | O=C(CCl)Nc1ccc(N2CCCC2)cc1 [PCM-0102670, O=C(CCl)Nc1ccc(N2CCCC2)cc1] | 48 | 0 | -13.297 | -13.297 | – | – | –
7 | O=C(CCl)NCc1ccco1 [PCM-0102671, O=C(CCl)NCc1ccco1] | 35 | 0 | -16.464 | -16.464 | – | – | –
8 | CN(Cc1ccco1)C(=O)CCl [PCM-0102672, CN(Cc1ccco1)C(=O)CCl] | 0 | 10 | -15.763 | -15.763 | – | – | –
9 | O=C(CCl)N1CCCC(C(F)(F)F)C1 (centres unmarked) [PCM-0102676, O=C(CCl)N1CCCC(C(F)(F)F)C1] | 0 | 14 | -15.616 | -15.616 | – | – | –
10 | CN(Cc1cc(Cl)cc(Cl)c1)C(=O)CCl [PCM-0102678, CN(Cc1cc(Cl)cc(Cl)c1)C(=O)CCl] | 0 | 45 | -15.789 | -15.789 | – | – | –
11 | O=C(CCl)N1CCCC1c1ccsc1 (centres unmarked) [PCM-0102693, O=C(CCl)N1CCCC1c1ccsc1] | 0 | 20 | -15.634 | -15.634 | – | – | –
12 | O=C(CCl)Nc1cccc(C(=O)O)c1 [PCM-0102696, O=C(CCl)Nc1cccc(C(=O)O)c1] | 11 | 0 | -16.586 | -16.586 | – | – | –
13 | CC1CC(=O)Nc2ccccc2N1C(=O)CCl (centres unmarked) [PCM-0102697, CC1CC(=O)Nc2ccccc2N1C(=O)CCl] | 0 | 22 | -15.686 | -15.686 | – | – | –
14 | O=C(CCl)Nc1nc2ccccc2s1 [PCM-0102698, O=C(CCl)Nc1nc2ccccc2s1] | 7 | 83 | -15.845 | -15.845 | – | – | –
15 | Cc1cc(NC(=O)CCl)n(-c2ccccc2C)n1 [PCM-0102699, Cc1cc(NC(=O)CCl)n(-c2ccccc2C)n1] | 0 | 0 | -15.949 | -15.949 | – | – | –
16 | N#Cc1ccc(Cl)cc1NC(=O)CCl [PCM-0102700, N#Cc1ccc(Cl)cc1NC(=O)CCl] | 17 | 40 | -16.148 | -16.148 | – | – | –
17 | CCCNC(=O)NC(=O)CCl [PCM-0102702, CCCNC(=O)NC(=O)CCl] | 22 | 0 | -16.357 | -16.357 | – | – | –
18 | CN(C(=O)CCl)C1CCCc2ccccc21 (centres unmarked) [PCM-0102703, CN(C(=O)CCl)C1CCCc2ccccc21] | 0 | 30 | – | -15.771 | -15.771 | – | –

Row | Compound | OTUB2 % labeling (OTUB2) [%] | NUDT7 % labeling (NUDT7) [%] | ln(avg k) [1, 2] | ln(avg k) [1, 3] | ln(avg k) [1, 4] | OTUB2 % labeling (OTUB2; OTUB2 protein labeling) [%] | ln(avg k) [1, 5]
19 | O=C(CCl)N1CCN(S(=O)(=O)c2ccc(Cl)cc2)CC1 [PCM-0102704, O=C(CCl)N1CCN(S(=O)(=O)c2ccc(Cl)cc2)CC1] | 0 | 25 | – | -15.137 | -15.137 | – | –
20 | O=C(CCl)NCC12CC3CC(CC(C3)C1)C2 [PCM-0102706, O=C(CCl)NCC12CC3CC(CC(C3)C1)C2] | 65 | 0 | – | -16.508 | -16.508 | – | –
21 | Cc1ccccc1CN(C)C(=O)CCl [PCM-0102707, Cc1ccccc1CN(C)C(=O)CCl] | 0 | 13 | – | -15.717 | -15.717 | – | –
22 | C=CCNC(=O)NC(=O)CCl [PCM-0102709, C=CCNC(=O)NC(=O)CCl] | 0 | 0 | – | -16.210 | -16.210 | – | –
23 | CC(c1ccccc1)N1CCN(C(=O)CCl)CC1 (centres unmarked) [PCM-0102710, CC(c1ccccc1)N1CCN(C(=O)CCl)CC1] | 12 | 0 | – | -15.723 | -15.723 | – | –
24 | CN(CCC#N)C(=O)CCl [PCM-0102712, CN(CCC#N)C(=O)CCl] | 0 | 0 | – | -15.839 | -15.839 | – | –
25 | CN(CC1CC1)C(=O)CCl [PCM-0102714, CN(CC1CC1)C(=O)CCl] | 0 | 0 | – | -16.302 | -16.302 | – | –
26 | COc1cccc(C2CCCN2C(=O)CCl)c1 (centres unmarked) [PCM-0102716, COc1cccc(C2CCCN2C(=O)CCl)c1] | 9 | 68 | – | -15.631 | -15.631 | – | –
27 | O=C(CCl)NCc1ccc(F)cc1C(F)(F)F [PCM-0102733, O=C(CCl)NCc1ccc(F)cc1C(F)(F)F] | 33 | 6 | – | -16.673 | -16.673 | – | –
28 | COC(=O)C1(NC(=O)CCl)CCCCC1 [PCM-0102734, COC(=O)C1(NC(=O)CCl)CCCCC1] | 0 | 0 | – | -16.826 | -16.826 | – | –
29 | C#Cc1cccc(NC(=O)CCl)c1 [PCM-0102735, C#Cc1cccc(NC(=O)CCl)c1] | – | 0 | – | – | -17.384 | 9 | -17.384
30 | CC(C)(C)c1nnc(NC(=O)CCl)s1 [PCM-0102736, CC(C)(C)c1nnc(NC(=O)CCl)s1] | – | 0 | – | – | -15.861 | 0 | -15.861
31 | O=C(CCl)Nc1ccc2c(c1)OC(F)(F)O2 [PCM-0102738, O=C(CCl)Nc1ccc2c(c1)OC(F)(F)O2] | – | 0 | – | – | -15.810 | 41 | -15.810
32 | O=C(CCl)N1CCN(Cc2ccsc2)CC1 [PCM-0102739, O=C(CCl)N1CCN(Cc2ccsc2)CC1] | – | 7 | – | – | -15.640 | 0 | -15.640
33 | Cc1ccc(S(N)(=O)=O)cc1NC(=O)CCl [PCM-0102744, Cc1ccc(S(N)(=O)=O)cc1NC(=O)CCl] | – | 0 | – | – | -16.170 | 10 | -16.170
34 | O=C(CCl)N(C1=CCCCC1)C1CC1 [PCM-0102745, O=C(CCl)N(C1=CCCCC1)C1CC1] | – | 0 | – | – | -16.466 | 0 | -16.466
35 | O=C(CCl)Nc1oncc1-c1ccccc1 [PCM-0102746, O=C(CCl)Nc1oncc1-c1ccccc1] | – | 0 | – | – | -16.489 | 64 | -16.489
